From ChEMBL document CHEMBL1255200, “Exploration of piperidine-4-yl-aminopyrimidines as HIV-1 reverse transcriptase inhibitors. N-Phenyl derivatives with broad potency against resistant mutant viruses” (Bioorg Med Chem Lett, 2010)

Tests used:
[1] = system: Human immunodeficiency virus 1; assay: Antiviral activity against wild type HIV1 infected in human MT4 cells assessed as reduction of virus-induced cytopathic effect by replication assay in presence of 10% FBS; type: functional, organism-based; conditions: Human immunodeficiency virus 1, MT4
[2] = system: Human immunodeficiency virus 1; assay: Antiviral activity against wild type HIV1 infected in human MT4 cells assessed as reduction of virus-induced cytopathic effect by replication assay in presence of 40% human serum; type: functional, organism-based; conditions: Human immunodeficiency virus 1, MT4
[3] = system: Human immunodeficiency virus 1; assay: Selectivity ratio of IC50 for wild type HIV1 in presence of 40% human serum to IC50 for wild type HIV1 in presence of 10% FBS; type: functional
[4] = system: Human immunodeficiency virus 1; assay: Antiviral activity against HIV1 harboring reverse transcriptase K103N/Y181C double mutant infected in human MT4 cells assessed as reduction of virus-induced cytopathic effect by replication assay in presence of 10% FBS; type: functional, organism-based; conditions: Human immunodeficiency virus 1, MT4
[5] = system: Human immunodeficiency virus 1; assay: Antiviral activity against HIV1 harboring reverse transcriptase Y188L mutant infected in human MT4 cells assessed as reduction of virus-induced cytopathic effect by replication assay in presence of 10% FBS; type: functional, organism-based; conditions: Human immunodeficiency virus 1, MT4
[6] = system: Human immunodeficiency virus 1; assay: Antiviral activity against HIV1 harboring reverse transcriptase V106A mutant infected in human MT4 cells assessed as reduction of virus-induced cytopathic effect by replication assay in presence of 10% FBS; type: functional, organism-based; conditions: Human immunodeficiency virus 1, MT4
[7] = Clearance in human liver microsomes; type: ADME, Microsome
[8] = system: Human immunodeficiency virus 1; assay: Antiviral activity against HIV1 harboring reverse transcriptase K103N/L100I double mutant infected in human MT4 cells assessed as reduction of virus-induced cytopathic effect by replication assay in presence of 10% FBS; type: functional, organism-based; conditions: Human immunodeficiency virus 1, MT4
[9] = molecular target: Human immunodeficiency virus type 1 reverse transcriptase (Human immunodeficiency virus 1, UniProt Q72547); assay: Inhibition of HIV1 recombinant wild type reverse transcriptase by SPA heteropolymeric assay
[10] = molecular target: Human immunodeficiency virus type 1 reverse transcriptase (Human immunodeficiency virus 1, UniProt Q72547, K103N/Y181C); assay: Inhibition of HIV1 recombinant reverse transcriptase K103N/Y181C double mutant by SPA heteropolymeric assay
[11] = molecular target: Human immunodeficiency virus type 1 reverse transcriptase (Human immunodeficiency virus 1, UniProt Q72547, Y188L); assay: Inhibition of HIV1 recombinant reverse transcriptase Y188L mutant by SPA heteropolymeric assay

For `Cc1cc(C#N)cc(C)c1Oc1nc(NC2CCN(Cc3ccc(S(N)(=O)=O)cc3Cl)CC2)ncc1Br`, the IC50 [1] was 6.1 nM, the IC50 [2] was 48.7 nM and the “Ratio IC50” value [3] was 8. It also gave an IC50 [4] of 7.3 nM, an IC50 [5] of 2.8 nM and an IC50 [6] of 2 nM. For the same compound, the microsomal CLint [7] was 151 µL/min/mg and the IC50 [8] was 5.9 nM.

For `Cc1cc(C#N)cc(C)c1Oc1ccnc(NC2CCN(c3ccc(S(N)(=O)=O)cc3)CC2)n1`, the IC50 [9] was 24 nM, the IC50 [10] was > 1000 nM and the IC50 [11] was > 1000 nM.

`Cc1cc(C#N)cc(Cl)c1Nc1ccnc(NC2CCN(c3cccc(C(N)=O)c3)CC2)n1` gave an IC50 [9] of 36 nM and an IC50 [10] of 36 nM.

In the case of `Cc1cc(C#N)cc(C)c1Oc1nc(NC2CCN(c3cccc(C#N)c3)CC2)ncc1Br`, the IC50 [9] is reported as 103 nM and the IC50 [10] is reported as 352 nM.

`Cc1cc(C#N)cc(C)c1Oc1ccnc(NC2CCN(c3cccc(C#N)c3)CC2)n1` gave an IC50 [9] of 51 nM and an IC50 [10] of 772 nM.

For `Cc1cc(C#N)cc(C)c1Oc1nc(NC2CCN(c3cccc(C(=O)O)c3)CC2)ncc1Br`, the IC50 [9] was 16 nM and the IC50 [10] was > 1000 nM.

`Cc1cc(C#N)cc(C)c1Oc1ccnc(NC2CCN(c3ccc(Cl)c(C(N)=O)c3)CC2)n1` gave an IC50 [9] of 9 nM and an IC50 [10] of 192 nM.

Work on `Cc1cc(C#N)cc(C)c1Oc1ccnc(NC2CCN(c3cc(Cl)cc(C(N)=O)c3)CC2)n1` yielded an IC50 [9] of 28 nM and an IC50 [10] of 265 nM.

In the case of `Cc1cc(C#N)cc(C)c1Oc1nc(NC2CCN(c3cc(C(N)=O)ccc3Cl)CC2)ncc1Br`, the IC50 [9] is reported as 76 nM, the IC50 [10] is reported as > 1000 nM and the IC50 [11] is reported as 874 nM.

With `Cc1cc(C#N)cc(C)c1Oc1nc(NC2CCN(c3cccc(C(N)=O)c3)CC2)ncc1Cl` the IC50 [9] was 24 nM, the IC50 [10] was 13 nM and the IC50 [11] was 203 nM.

In the case of `Cc1cc(C#N)cc(C)c1Oc1nc(NC2CCN(c3cccc(C(N)=O)c3)CC2)ncc1F`, the IC50 [9] is reported as 14 nM, the IC50 [10] is reported as 14 nM and the IC50 [11] is reported as 35 nM.

Work on `Cc1cnc(NC2CCN(c3cccc(C(N)=O)c3)CC2)nc1Oc1c(C)cc(C#N)cc1C` yielded an IC50 [9] of 12 nM, an IC50 [10] of 15 nM and an IC50 [1] of 1.1 nM. For the same compound, the IC50 [2] was 4.5 nM, the “Ratio IC50” value [3] was 4 and the IC50 [4] was 3.8 nM. The IC50 [5] was < 1.2 nM, the IC50 [6] was 0.6 nM and the microsomal CLint [7] was 730 µL/min/mg. The IC50 [8] was 6.7 nM.

Compound `Cc1cc(C#N)cc(C)c1Oc1nc(NC2CCN(c3cccc(C(N)=O)c3)CC2)ncc1C(F)(F)F` has an IC50 [9] of 86 nM and an IC50 [10] of 41 nM.

`Cc1cc(C#N)cc(C)c1Oc1nc(NC2CCN(c3cccc(C(N)=O)c3)CC2)ncc1N` gave an IC50 [9] of 19 nM, an IC50 [10] of 17 nM and an IC50 [11] of 118 nM.

In the case of `Cc1cc(C#N)cc(C)c1Oc1nc(NC2CCN(c3cccc(C(N)=O)c3)CC2)ncc1[N+](=O)[O-]`, the IC50 [9] is reported as 109 nM and the IC50 [10] is reported as 64 nM.

`Cc1cc(C#N)cc(Cl)c1Oc1ccnc(NC2CCN(c3cccc(C(N)=O)c3)CC2)n1` showed an IC50 [9] of 8 nM, an IC50 [10] of 8 nM and an IC50 [1] of 0.4 nM. For the same compound, the IC50 [2] was 7.5 nM, the “Ratio IC50” value [3] was 17.4 and the IC50 [4] was 5.3 nM. It also gave an IC50 [5] of 1.6 nM, a microsomal CLint [7] of 274 µL/min/mg and an IC50 [8] of 42 nM.

`Cc1cc(C#N)cc(Cl)c1Oc1nc(NC2CCN(c3cccc(C(N)=O)c3)CC2)ncc1Br` gave an IC50 [9] of 28 nM, an IC50 [10] of 28 nM and an IC50 [11] of 413 nM.

For `Cc1cc(C#N)cc(Cl)c1Oc1nc(NC2CCN(c3cccc(C(N)=O)c3)CC2)ncc1Cl`, the IC50 [9] was 20 nM, the IC50 [10] was 20 nM and the IC50 [11] was 48 nM.

`Cc1cnc(NC2CCN(c3cccc(C(N)=O)c3)CC2)nc1Oc1c(C)cc(C#N)cc1Cl` gave an IC50 [9] of 6 nM, an IC50 [10] of 6 nM and an IC50 [1] of 1.6 nM. For the same compound, the IC50 [2] was 14.2 nM, the “Ratio IC50” value [3] was 8.6 and the IC50 [4] was 5.5 nM. For the same compound, the IC50 [5] was 1.4 nM, the IC50 [6] was 0.7 nM and the microsomal CLint [7] was 580 µL/min/mg. For the same compound, the IC50 [8] was 7.4 nM.

Compound `COc1cc(C#N)cc(C)c1Oc1ccnc(NC2CCN(c3cccc(C(N)=O)c3)CC2)n1` has an IC50 [9] of 18 nM, an IC50 [10] of 18 nM and an IC50 [11] of 64 nM.

With `COc1cc(C#N)cc(C)c1Oc1nc(NC2CCN(c3cccc(C(N)=O)c3)CC2)ncc1Br` the IC50 [9] was 56 nM and the IC50 [10] was 56 nM.

With `COc1cc(C#N)cc(C)c1Oc1nc(NC2CCN(c3cccc(C(N)=O)c3)CC2)ncc1Cl` the IC50 [9] was 19 nM, the IC50 [10] was 19 nM and the IC50 [11] was 101 nM.

In the case of `COc1cc(C#N)cc(C)c1Oc1nc(NC2CCN(c3cccc(C(N)=O)c3)CC2)ncc1C`, the IC50 [9] is reported as 21 nM, the IC50 [10] is reported as 21 nM and the IC50 [11] is reported as 66 nM.

Work on `Cc1cc(C#N)cc(F)c1Oc1nc(NC2CCN(c3cccc(C(N)=O)c3)CC2)ncc1Br` yielded an IC50 [9] of 6 nM, an IC50 [10] of 6 nM and an IC50 [11] of 29 nM. The IC50 [1] was 7.3 nM, the IC50 [2] was 18.2 nM and the “Ratio IC50” value [3] was 2.5. It also gave an IC50 [4] of 28 nM, an IC50 [5] of 5.5 nM and an IC50 [6] of 3.9 nM. It also gave a microsomal CLint [7] of 82 µL/min/mg and an IC50 [8] of 18.4 nM.

Compound `Cc1cc(C#N)cc(C)c1Nc1ccnc(NC2CCN(c3cccc(C(N)=O)c3)CC2)n1` has an IC50 [9] of 23 nM, an IC50 [10] of 23 nM and an IC50 [1] of 0.5 nM. The IC50 [2] was 13.9 nM, the “Ratio IC50” value [3] was 27.1 and the IC50 [4] was 15.2 nM. The IC50 [5] was 3.7 nM, the IC50 [6] was 0.8 nM and the microsomal CLint [7] was 31 µL/min/mg. The IC50 [8] was > 100 nM.

Compound `Cc1cc(C#N)cc(C)c1Nc1nc(NC2CCN(c3cccc(C(N)=O)c3)CC2)ncc1Br` has an IC50 [9] of 19 nM, an IC50 [10] of 19 nM and an IC50 [11] of 75 nM. For the same compound, the IC50 [1] was 1.5 nM, the IC50 [2] was 14.2 nM and the “Ratio IC50” value [3] was 9.8. It also gave an IC50 [4] of 11.7 nM, an IC50 [5] of 2.7 nM and an IC50 [6] of 0.9 nM. For the same compound, the microsomal CLint [7] was 42 µL/min/mg and the IC50 [8] was 10.8 nM.

`Cc1cc(C#N)cc(C)c1Oc1nc(NC2CCN(c3cccc(S(N)(=O)=O)c3)CC2)ncc1Br` showed an IC50 [9] of 19 nM, an IC50 [10] of 72 nM and an IC50 [11] of 105 nM.

For `Cc1cc(C#N)cc(C)c1Oc1ccnc(NC2CCN(c3cccc(S(N)(=O)=O)c3)CC2)n1`, the IC50 [9] was 15 nM, the IC50 [10] was 622 nM and the IC50 [11] was 194 nM.

In the case of `Cc1cc(C#N)cc(Cl)c1Nc1nc(NC2CCN(c3cccc(C(N)=O)c3)CC2)ncc1Br`, the IC50 [9] is reported as 15 nM, the IC50 [10] is reported as 15 nM and the IC50 [11] is reported as 42 nM. For the same compound, the IC50 [1] was 1.2 nM, the IC50 [2] was 9.9 nM and the “Ratio IC50” value [3] was 8.6. For the same compound, the IC50 [4] was 4.9 nM, the IC50 [5] was < 1.2 nM and the IC50 [6] was 0.5 nM. The microsomal CLint [7] was 418 µL/min/mg and the IC50 [8] was 2.9 nM.

Work on `Cc1cc(C#N)cc(C)c1Oc1nc(NC2CCN(c3ccccc3C(N)=O)CC2)ncc1Br` yielded an IC50 [9] of 32 nM and an IC50 [10] of 967 nM.

Compound `Cc1cc(C#N)cc(C)c1Oc1nc(NC2CCN(c3cccc(C(N)=O)c3)CC2)ncc1Br` has an IC50 [9] of 19 nM, an IC50 [10] of 30 nM and an IC50 [11] of 70 nM.

For `Cc1cc(C#N)cc(C)c1Oc1ccnc(NC2CCN(c3cccc(C(N)=O)c3)CC2)n1`, the IC50 [9] was 7 nM, the IC50 [10] was 16 nM and the IC50 [11] was 34 nM.

With `Cc1cc(C#N)cc(C)c1Oc1nc(NC2CCN(c3ccc(C(N)=O)cc3)CC2)ncc1Br` the IC50 [9] was 24 nM and the IC50 [10] was > 1000 nM.

Work on `Cc1cc(C#N)cc(C)c1Oc1nc(NC2CCN(c3cccc(S(C)(=O)=O)c3)CC2)ncc1Br` yielded an IC50 [9] of 42 nM, an IC50 [10] of 100 nM and an IC50 [11] of 831 nM.

Compound `Cc1cc(C#N)cc(C)c1Oc1ccnc(NC2CCN(c3cccc(S(C)(=O)=O)c3)CC2)n1` has an IC50 [9] of 11 nM and an IC50 [10] of 238 nM.

For `O=C1Nc2ccc(Cl)cc2[C@@](C#CC2CC2)(C(F)(F)F)O1` [EFAVIRENZ], the IC50 [4] was 82.8 nM, the IC50 [5] was > 100 nM and the IC50 [8] was > 100 nM.

With `Cc1cc(C#N)cc(C)c1Oc1nc(Nc2ccc(C#N)cc2)nc(N)c1Br` [ETRAVIRINE] the IC50 [4] was 9.2 nM and the microsomal CLint [7] was 29 µL/min/mg.
